Reference: patent publication US9012493B2, “1-heterodiene derivative and pest control agent” (Nippon Soda Co., Ltd., priority 2009, dated 2015)

Experiments:
Type in all cases: in vivo
[1] = system: Twospotted Spider Mite (Tetranychus Urticae Koch); test: Efficacy test against twospotted spider mite, spray on kidney bean plant; conditions: 125 ppm, wettable powder diluted with water, sprayed, female adults with resistance to an organophosphorus agent on kidney bean, after 3 days
Protocol: The wettable powder obtained according to Formulation of Formulation Example 1 was diluted with water so as to control the concentration of the compound to 125 ppm. Seventeen female adults of twospotted spider mite with resistance to an organophosphorus agent were inoculated on a first true leaf of a kidney bean plant (approximately 7 to 10 days after sprouting) sown in a 3 sun/size pot (9 cm). The diluted solution was sprayed. The pot was placed in a temperature-controlled room at a temperature of 25° C. and a humidity of 65%. After 3 days, the adulticidal rate was examined. The test was repeated twice.

[2] = system: Rice Armyworm (Mythimna Separata); test: Efficacy test against rice armyworm, corn leaf dip; conditions: 125 ppm, emulsifiable concentrate diluted with water, corn leaves immersed, second instar larvae, after 5 days, 25° C.
Protocol: (§1) Test Examples of the pest control agent thus obtained according to the present invention are shown below. In respective Test Examples, the insecticidal rate (%) was determined by the following calculation equation. Insecticidal rate (%)=(number of dead pests/number of released pests)×100
The emulsifiable concentrate obtained according to Formulation of Formulation Example 2 was diluted with water so as to control the concentration of the compound to 125 ppm. Leaves of corn were immersed in this diluted solution for 30 seconds and then air-dried. The leaves were put in a petri dish on which a filter paper is laid, and then five second instar larvae of rice armyworm were inoculated. After covering the petri dish with a glass lid, the petri dish was placed in a temperature-controlled room at a temperature of 25° C. and a humidity of 65%. After 5 days, life and death were examined and the insecticidal rate was determined. The test was repeated twice.

[3] = system: Sweetpotato Whitefly (Bemisia Tabaci); test: Efficacy test against sweetpotato whitefly, sprayed tomato leaf; conditions: 125 ppm, emulsifiable concentrate diluted with water, adults (type B), after 2 days, 25° C.
Protocol: as §1
The emulsifiable concentrate obtained according to Formulation of Formulation Example 2 was diluted with water so as to control the concentration of the compound to 125 ppm. The diluted solution was sprayed over a tomato leaf obtained by cutting and then air-dried. Using absorbent cotton, the leaf was fixed to a flask so that a front surface of the leaf faces upward. Seven pairs of adults of sweetpotato whitefly (type B) were inoculated in this container, and the container was placed in a temperature-controlled room at a temperature of 25° C. and a humidity of 65%. After 2 days, life and death were examined and the insecticidal rate was determined. The test was repeated twice.

[4] = system: Cotton Aphid (Aphis Gossypii); test: Efficacy test against cotton aphid, spray on cucumber plant; conditions: 125 ppm, emulsifiable concentrate diluted with water, sprayed over cucumber plant with nymphs, after 5 days, 25° C.
Protocol: as §1
The emulsifiable concentrate obtained according to Formulation of Formulation Example 2 was diluted with water so as to control the concentration of the compound to 125 ppm. Adults of cotton aphids were inoculated to a cucumber plant (approximately 10 days after sprouting) sown in a 3 sun/size pot (9 cm). After 1 day, adult aphids were removed and the diluted solution was sprayed over the cucumber plant on which delivered nymphs are parasitic. The pot was placed in a temperature-controlled room at a temperature of 25° C. and a humidity of 65%. After 5 days, life and death were examined and the insecticidal rate was determined. The test was repeated twice.

C=C1SC(=Nc2ccc(C)cc2)C(=CSc2cccc(F)c2)CC1(C)C (mixture of isomers) [Compound 2-84]
100%: adulticidal rate [1] | insecticidal rate [2] | insecticidal rate [3] | insecticidal rate [4]

C=C1SC(=Nc2ccc(C)cc2)C(=CSc2ccccc2F)CC1(C)C (mixture of isomers) [Compound 2-85]
100%: adulticidal rate [1] | insecticidal rate [2] | insecticidal rate [3] | insecticidal rate [4]

C=C1SC(=Nc2ccc(C)cc2)C(=CSc2ccc(C)cc2)CC1(C)C (mixture of isomers) [Compound 2-86]
100%: adulticidal rate [1] | insecticidal rate [2] | insecticidal rate [3] | insecticidal rate [4]

C=C1SC(=Nc2ccc(C)cc2)C(=CSc2ccc(Cl)cc2)CC1(C)C (mixture of isomers) [Compound 2-87]
100%: adulticidal rate [1] | insecticidal rate [2] | insecticidal rate [3] | insecticidal rate [4]

C=C1SC(=Nc2ccc(C)cc2)C(=CSc2cccc3ccccc23)CC1(C)C (mixture of isomers) [Compound 2-89]
100%: adulticidal rate [1] | insecticidal rate [2] | insecticidal rate [3] | insecticidal rate [4]

CC(C)=C1CCC(=CSc2ccc(F)cc2)C(=Nc2ccc(C)cc2)S1 (mixture of isomers) [Compound 6-2]
100%: adulticidal rate [1] | insecticidal rate [2] | insecticidal rate [3]

C=C1SC(=Nc2ccc(C)cc2)C(=CSc2cccnc2)CC1(C)C (mixture of isomers) [Compound 6-6]
100%: adulticidal rate [1] | insecticidal rate [2] | insecticidal rate [3]

C=C1SC(=Nc2ccc(C)cc2)C(=CSc2ccc(F)cc2F)CC1(C)C (mixture of isomers) [Compound 6-7]
100%: adulticidal rate [1] | insecticidal rate [2] | insecticidal rate [3]

C=C1SC(=Nc2ccccc2OC)C(=CSc2ccccc2)CC1(C)C [Compound 2-27]
100%: adulticidal rate [1] | insecticidal rate [2] | insecticidal rate [3]

C=C1SC(=Nc2cc(OC)cc(OC)c2)C(=CSc2ccccc2)CC1(C)C [Compound 2-38]
100%: adulticidal rate [1] | insecticidal rate [3]

C=C1SC(=Nc2ccc(OC)cc2)C(=CSc2ccccn2)CC1(C)C [Compound 2-50]
100%: adulticidal rate [1] | insecticidal rate [3] | insecticidal rate [4]

C=C1SC(=Nc2ccc(OC)cc2)C(=CSc2cccs2)CC1(C)C [Compound 2-51]
100%: adulticidal rate [1] | insecticidal rate [4]

C=C1SC(=Nc2ccc(C)cc2OC)C(=CSc2ccccc2)CC1(C)C [Compound 2-59]
100%: adulticidal rate [1] | insecticidal rate [2] | insecticidal rate [3]

C=C1SC(=Nc2c(C)cc(C)cc2C)C(=CSc2ccccc2)CC1(C)C [Compound 2-63]
100%: insecticidal rate [2] | insecticidal rate [3] | insecticidal rate [4]

C=C1SC(=Nc2c(F)cc(OC)cc2F)C(=CSc2ccccc2)CC1(C)C [Compound 2-65]
100%: insecticidal rate [2] | insecticidal rate [3] | insecticidal rate [4]

C=C1SC(=Nc2c(C)cc(C)cc2C)C(=CSc2cccs2)CC1(C)C [Compound 2-66]
100%: insecticidal rate [2] | insecticidal rate [3] | insecticidal rate [4]

C=C1SC(=Nc2c(C)cc(OC)cc2C)C(=CSc2ccccc2)CC1(C)C [Compound 2-67]
100%: insecticidal rate [2] | insecticidal rate [3] | insecticidal rate [4]

C=C1SC(=Nc2ccc(C)cc2)C(=CSc2nccs2)CC1(C)C [Compound 2-73]
100%: adulticidal rate [1] | insecticidal rate [2] | insecticidal rate [4]

C=C1SC(=Nc2ccc(C)cc2)C(=CSc2cccc(Cl)n2)CC1(C)C [Compound 2-91]
100%: insecticidal rate [2] | insecticidal rate [3] | insecticidal rate [4]

C=C1SC(=Nc2ccc(C)cc2)C(=CSc2ccncc2)CC1(C)C [Compound 2-92]
100%: adulticidal rate [1] | insecticidal rate [2] | insecticidal rate [3]

C=C1SC(=Nc2ccc(C)cc2)C(=CSc2ccoc2C)CC1(C)C [Compound 2-93]
100%: insecticidal rate [2] | insecticidal rate [3] | insecticidal rate [4]

C=C1SC(=Nc2ccc(C)cc2)C(=CSc2ccc(N(C)C)cc2)CC1(C)C [Compound 2-97]
100%: insecticidal rate [2] | insecticidal rate [3] | insecticidal rate [4]

C=C1SC(=Nc2ccc(C)cc2)C(=CSc2nccc(C(F)(F)F)n2)CC1(C)C [Compound 2-98]
100%: insecticidal rate [2] | insecticidal rate [3] | insecticidal rate [4]

C=C1SC(=Nc2ccc(C)cc2)C(=CSc2cccc(Br)c2)CC1(C)C [Compound 2-101]
100%: adulticidal rate [1] | insecticidal rate [2] | insecticidal rate [3]

C=C1SC(=Nc2ccc(C)cc2)C(=CSc2ccccc2Br)CC1(C)C [Compound 2-102]
100%: adulticidal rate [1] | insecticidal rate [2] | insecticidal rate [3]

C=C1SC(=Nc2ccc(C)cc2)C(=CSc2sccc2C)CC1(C)C [Compound 2-104]
100%: adulticidal rate [1] | insecticidal rate [2] | insecticidal rate [3]

C=C1SC(=Nc2ccc(C)cc2)C(=CSc2cccc(C(C)=O)c2)CC1(C)C [Compound 2-105]
100%: adulticidal rate [1] | insecticidal rate [2]

C=C1SC(=Nc2ccc(C)cc2)C(=CSc2cccc(C#N)c2)CC1(C)C [Compound 2-106]
100%: adulticidal rate [1] | insecticidal rate [2] | insecticidal rate [3]

C=C1SC(=Nc2ccc(C)cc2)C(=CSc2ccccc2C)CC1(C)C [Compound 2-111]
100%: adulticidal rate [1] | insecticidal rate [2]

C=C1SC(=Nc2ccc(C)cc2)C(=CSCc2ccccc2)CC1(C)C [Compound 2-112]
100%: insecticidal rate [2] | insecticidal rate [3] | insecticidal rate [4]

C=C1SC(=Nc2ccc(C)cc2)C(=CSc2ccc3ccccc3n2)CC1(C)C [Compound 2-113]
100%: adulticidal rate [1] | insecticidal rate [2]

C=C1SC(=Nc2ccc(C)cc2)C(=CSc2c(F)cccc2F)CC1(C)C [Compound 2-114]
100%: adulticidal rate [1] | insecticidal rate [2] | insecticidal rate [3]

C=C1SC(=Nc2ccc(C)cc2)C(=CSc2c(C)cccc2C)CC1(C)C [Compound 2-119]
100%: adulticidal rate [1] | insecticidal rate [2] | insecticidal rate [3]

C=C1SC(=Nc2ccc(C)cc2)C(=CSc2nccc(C)n2)CC1(C)C [Compound 2-121]
100%: insecticidal rate [2] | insecticidal rate [3] | insecticidal rate [4]

C#CCSC=C1CC(C)(C)C(=C)SC1=Nc1ccc(C)cc1 [Compound 2-122]
100%: insecticidal rate [2] | insecticidal rate [3] | insecticidal rate [4]

C=C1SC(=Nc2ccc(OC)cc2)C(=CSc2nccc(C)n2)CC1(C)C [Compound 2-127]
100%: insecticidal rate [2] | insecticidal rate [3] | insecticidal rate [4]

C=C1SC(=Nc2ccccc2)C(=CSc2nccc(C)n2)CC1(C)C [Compound 2-128]
100%: insecticidal rate [2] | insecticidal rate [3] | insecticidal rate [4]

C=C1SC(=Nc2ccccc2)C(=CSc2cccs2)CC1(C)C [Compound 2-129]
100%: insecticidal rate [2] | insecticidal rate [3] | insecticidal rate [4]

C=C1SC(=Nc2ccc(C)c(C)c2)C(=CSc2nccc(C)n2)CC1(C)C [Compound 2-132]
100%: insecticidal rate [2] | insecticidal rate [3] | insecticidal rate [4]

C=C1SC(=Nc2ccc(C)cc2)C(=CSc2ccc(C(C)C)cc2)CC1(C)C [Compound 2-151]
100%: adulticidal rate [1] | insecticidal rate [2] | insecticidal rate [3]
